Test results as given in US6461997B1, “Triazole sulfones having herbicidal activity” (Monsanto Technology LLC, priority 1999, dated 2002).

Tests used:
[1] = tested on: CHEAL (common lambsquarters); assay: Pre-emergence herbicidal activity, warm season; assay type: in vivo, Chenopodium album; details: GR80 = lowest tested rate (300, 100, 30, 10 g/ha) with 80% or greater inhibition; approx. 14 days after treating; 30/21° C.
How it was run: (§1)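 Seeds sown in sterilised fertilised topsoil received surface-applied compound in 50:50 acetone/water, typically at 300, 100, 30 and 10 g/ha, then greenhouse-grown at 30/21° C (warm-season species) or 18/13° C (cool-season species). Percent inhibition versus untreated plants was scored at about 14 days, giving GR80; an asterisk marks activity short of 80% at the top rate.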

ECHCG (barnyardgrass) = assay: Pre-emergence herbicidal activity, warm season; assay type: in vivo, Echinochloa crus-galli; details: GR80 = lowest tested rate (300, 100, 30, 10 g/ha) with 80% or greater inhibition; approx. 14 days after treating; 30/21° C.
How it was run: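 GR80 values derive from percent inhibition relative to untreated plants, read roughly 14 days after sowing and pre-emergence soil-surface treatment (compound in 50:50 acetone/water; rates typically 10, 30, 100, 300 g/ha). Warm-season weeds grew at 30/21° C day/night, cool-season ones at 18/13° C; an asterisk marks activity without reaching 80% at the highest rate.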

SASKR (russian thistle) = assay: Pre-emergence herbicidal activity, cool season; assay type: in vivo, Salsola kali; details: lowest tested rate with 80% or greater inhibition; rates 300, 100, 30, 10 g/ha; about 14 days
How it was run: as §1

STEME (common chickweed) [2] = assay: Pre-emergence herbicidal activity, cool season; assay type: in vivo, Stellaria media; details: lowest tested rate with 80% or greater inhibition; rates 300, 100, 30, 10 g/ha; about 14 days
How it was run: as §1

[3] = tested on: LAMPU (purple deadnettle); assay: Pre-emergence herbicidal activity, cool season; assay type: in vivo, Lamium purpureum; details: lowest tested rate with 80% or greater inhibition; rates 300, 100, 30, 10 g/ha; about 14 days
How it was run: as §1

[4] = tested on: PANMI (wild proso millet); assay: Pre-plant incorporated (PPI) herbicidal activity, warm season; assay type: in vivo, Panicum miliaceum
Method: (§2) In another set of tests, the pre-plant incorporated (PPI) activity of compounds of this invention was evaluated on the same species as for the pre-emergence tests described above. In the PPI tests the following procedure, designed to simulate PPI application, was used.
(§3) A pre-prepared topsoil mixture (described above) was placed in a pot and compacted to a depth of 1.0 to 1.25 cm from the top of the pot. Seeds of each of several monocotyledonous and dicotyledonous annual plant species were placed on top of the soil. A sufficient quantity of soil to cover the seeds and level fill the pot was weighed into an open container. A known amount of the test compound was dissolved or suspended in an organic solvent and applied by spraying to this cover soil. The cover soil was thoroughly mixed to distribute the test compound throughout the cover soil, and was then applied as a cover layer over the seeds. Untreated soil was used as a cover layer for control pots. After treatment the plants were placed in a greenhouse where they received 0.64 cm of overhead irrigation. All subsequent watering consisted of a light overhead mist and/or subirrigation as needed for germination and growth. Tables 9 and 10 below relate to warm season plant species which were placed after pre-emergence treatment in a greenhouse with a 30/21° C. day/night temperature regime. Tables 11 and 12 below relates to cool season plant species placed after pre-emergence treatment in a greenhouse or growth chamber with an 18/13° C. day/night temperature regime. Only the compounds of Examples 1, 6, 8, 11, 13 and 15-20 were included in PPI tests.
(§4) Approximately 14 days after planting and treating, the plants were observed and herbicidal efficacy recorded as percent inhibition by comparison with untreated plants.

[5] = tested on: SORHA (johnsongrass (seedling)); assay: as above; assay type: in vivo, Sorghum halepense
Method: as §2, §3, §4

SORVU (shattercane) = assay: as above; assay type: in vivo, Sorghum vulgare
Method: as §2, §3, §4

STEME (common chickweed) [6] = assay: Pre-plant incorporated (PPI) herbicidal activity, cool season; assay type: in vivo, Stellaria media
Method: as §2, §3, §4

ALOMY (blackgrass) = assay: as above; assay type: in vivo, Alopecurus myosuroides
Method: as §2, §3, §4

corn (ZEAMX) = assay: Selectivity test, PPI, warm season crop; assay type: in vivo, Zea mays; details: Zea mays, PPI application, read-out: Percent inhibition ZEAMX
Method: as §3, §4
Additional pre-emergence and PPI tests were conducted by the procedures described above, on warm and cool season weed species in the presence of crop species, to assess herbicidal selectivity. Crop species included in warm season tests were corn (Zea mays, ZEAMX), rice (Oryza sativa, ORYSA) and soybean (Glycine max, GLYMX). Crop species included in cool season tests were wheat (Triticum aestivum, TRZAW), barley (Hordeunm vulgare, HORVX) and oilseed rape (Brassica napus, BRSNS).
Tables 15 and 16 relate to pre-emergence and PPI tests respectively on warm season species. Table 17 relates to pre-emergence tests on cool season species.

[7] = pre-plant incorporated, lowest tested rate with 80% or greater inhibition, about 14 days

In the case of `CCSC(F)(F)S(=O)(=O)c1ncn(C(=O)N(CC)CC)n1` [Example 8, 1-(N,N-diethylcarbamoyl)-3-[difluoro(ethylthio)methylsulfonyl]-1,2,4-triazole], the “Pre-emergence activity (GR80) CHEAL” value [1] is reported as 100 g/ha, the “Pre-emergence activity (GR80) ECHCG” value (ECHCG (barnyardgrass)) is reported as 100 g/ha and the “Pre-emergence activity GR80, SASKR” value (SASKR (russian thistle)) is reported as 300 g/ha. For the same compound, the “Pre-emergence activity GR80, STEME” value (STEME (common chickweed) [2]) was “[empty]”, the “Pre-emergence activity GR80, LAMPU” value [3] was “[empty]” and the inhibition at 30 g/ha ([4]; Panicum miliaceum, PPI application, 30 g/ha, read-out: Percent inhibition PANMI) was 100%. The inhibition at 100 g/ha ([4]; Panicum miliaceum, PPI application, 100 g/ha, read-out: Percent inhibition PANMI) was 100%, the inhibition at 300 g/ha ([4]; Panicum miliaceum, PPI application, 300 g/ha, read-out: Percent inhibition PANMI) was 100% and the inhibition at 900 g/ha ([4]; Panicum miliaceum, PPI application, 900 g/ha, read-out: Percent inhibition PANMI) was 100%. For the same compound, the “PPI activity GR80, PANMI” value [4, 7] was 10 g/ha, the inhibition at 30 g/ha ([5]; Sorghum halepense, PPI application, 30 g/ha, read-out: Percent inhibition SORHA) was 100% and the inhibition at 100 g/ha ([5]; Sorghum halepense, PPI application, 100 g/ha, read-out: Percent inhibition SORHA) was 90%. The inhibition at 300 g/ha ([5]; Sorghum halepense, PPI application, 300 g/ha, read-out: Percent inhibition SORHA) was 100%, the inhibition at 900 g/ha ([5]; Sorghum halepense, PPI application, 900 g/ha, read-out: Percent inhibition SORHA) was 100% and the “PPI activity GR80, SORHA” value [5, 7] was 30 g/ha. It also gave an inhibition at 30 g/ha (SORVU (shattercane); Sorghum bicolor, PPI application, 30 g/ha, read-out: Percent inhibition SORVU) of 50%, an inhibition at 100 g/ha (SORVU (shattercane); Sorghum bicolor, PPI application, 100 g/ha, read-out: Percent inhibition SORVU) of 70% and an inhibition at 300 g/ha (SORVU (shattercane); Sorghum bicolor, PPI application, 300 g/ha, read-out: Percent inhibition SORVU) of 100%. The inhibition at 900 g/ha (SORVU (shattercane); Sorghum bicolor, PPI application, 900 g/ha, read-out: Percent inhibition SORVU) was 100%, the “PPI activity GR80, SORVU” value (SORVU (shattercane); [7]) was 300 g/ha and the inhibition at 30 g/ha (STEME (common chickweed) [6]; Stellaria media, weed, PPI application, 30 g/ha, read-out: Percent inhibition STEME) was 80%. The inhibition at 100 g/ha (STEME (common chickweed) [6]; Stellaria media, weed, PPI application, 100 g/ha, read-out: Percent inhibition STEME) was 80%, the inhibition at 300 g/ha (STEME (common chickweed) [6]; Stellaria media, weed, PPI application, 300 g/ha, read-out: Percent inhibition STEME) was 95% and the inhibition at 900 g/ha (STEME (common chickweed) [6]; Stellaria media, weed, PPI application, 900 g/ha, read-out: Percent inhibition STEME) was 99%. The “PPI activity GR80, STEME” value (STEME (common chickweed) [6]; [7]) was 30 g/ha, the inhibition at 30 g/ha (ALOMY (blackgrass); Alopecurus myosuroides, weed, PPI application, 30 g/ha, read-out: Percent inhibition ALOMY) was 0% and the inhibition at 100 g/ha (ALOMY (blackgrass); Alopecurus myosuroides, weed, PPI application, 100 g/ha, read-out: Percent inhibition ALOMY) was 95%. For the same compound, the inhibition at 300 g/ha (ALOMY (blackgrass); Alopecurus myosuroides, weed, PPI application, 300 g/ha, read-out: Percent inhibition ALOMY) was 100%, the inhibition at 900 g/ha (ALOMY (blackgrass); Alopecurus myosuroides, weed, PPI application, 900 g/ha, read-out: Percent inhibition ALOMY) was 100% and the “PPI activity GR80, ALOMY” value (ALOMY (blackgrass); [7]) was 100 g/ha. The inhibition at 30 g/ha (corn (ZEAMX); 30 g/ha) was 0%, the inhibition at 100 g/ha (corn (ZEAMX); 100 g/ha) was 5% and the inhibition at 300 g/ha (corn (ZEAMX); 300 g/ha) was 65%. The inhibition at 900 g/ha (corn (ZEAMX); 900 g/ha) was 95%.
